From BindingDB's records for doi:10.1016/s0960-894x(99)00659-9 (Kyoto Pharmaceutical University, 2000)

Experiment: Inhibitory activity against porcine pancreatic elastase (PPE)
Work on `O=C(CCc1cccc(Cl)c1Cl)N[C@@H](Cc1ccccc1)C(=O)CCl` [N-((S)-1-Benzyl-3-chloro-2-oxo-propyl)-3-(2,3-dichloro-phenyl)-propionamide] yielded an IC50 of 32 µM. Work on `COc1ccccc1CCC(=O)N[C@@H](Cc1ccccc1)C(=O)CCl` [N-((S)-1-Benzyl-3-chloro-2-oxo-propyl)-3-(2-methoxy-phenyl)-propionamide] yielded an IC50 of 85 µM. For `O=C(CCc1cccc(F)c1)N[C@@H](Cc1ccccc1)C(=O)CCl` [N-((S)-1-Benzyl-3-chloro-2-oxo-propyl)-3-(3-fluoro-phenyl)-propionamide], the IC50 was 280 µM. `O=C(CCc1cccc(O)c1)N[C@@H](Cc1ccccc1)C(=O)CCl` [N-((S)-1-Benzyl-3-chloro-2-oxo-propyl)-3-(3-hydroxy-phenyl)-propionamide] showed an IC50 greater than 1000 µM. `COc1cccc(CCC(=O)N[C@@H](Cc2ccccc2)C(=O)CCl)c1` [N-((S)-1-Benzyl-3-chloro-2-oxo-propyl)-3-(3-methoxy-phenyl)-propionamide] showed an IC50 of 600 µM. With `O=C(CCc1cccc(C(F)(F)F)c1)N[C@@H](Cc1ccccc1)C(=O)CCl` [N-((S)-1-Benzyl-3-chloro-2-oxo-propyl)-3-(3-trifluoromethyl-phenyl)-propionamide] the IC50 was 37 µM. With `O=C(CCc1ccc(F)cc1)N[C@@H](Cc1ccccc1)C(=O)CCl` [N-((S)-1-Benzyl-3-chloro-2-oxo-propyl)-3-(4-fluoro-phenyl)-propionamide] the IC50 was 240 µM. Compound `O=C(CCc1ccc(O)cc1)N[C@@H](Cc1ccccc1)C(=O)CCl` [N-((S)-1-Benzyl-3-chloro-2-oxo-propyl)-3-(4-hydroxy-phenyl)-propionamide] has an IC50 greater than 1000 µM. Compound `CC(C)c1ccc(CCC(=O)N[C@@H](Cc2ccccc2)C(=O)CCl)cc1` [N-((S)-1-Benzyl-3-chloro-2-oxo-propyl)-3-(4-isopropyl-phenyl)-propionamide] has an IC50 of 15 µM. `O=C(CCc1ccc(C(F)(F)F)cc1)N[C@@H](Cc1ccccc1)C(=O)CCl` [N-((S)-1-Benzyl-3-chloro-2-oxo-propyl)-3-(4-trifluoromethyl-phenyl)-propionamide] showed an IC50 of 13 µM. `Cc1cccc(CCC(=O)N[C@@H](Cc2ccccc2)C(=O)CCl)c1` [N-((S)-1-Benzyl-3-chloro-2-oxo-propyl)-3-m-tolyl-propionamide] showed an IC50 of 130 µM. Work on `Cc1ccc(CCC(=O)N[C@@H](Cc2ccccc2)C(=O)CCl)cc1` [N-((S)-1-Benzyl-3-chloro-2-oxo-propyl)-3-p-tolyl-propionamide] yielded an IC50 of 90 µM. In the case of `O=C(/C=C/c1ccccc1)N[C@@H](Cc1ccccc1)C(=O)CCl` [N-((S)-1-Benzyl-3-chloro-2-oxo-propyl)-3-phenyl-acrylamide], the IC50 is reported as 26 µM. Compound `O=C(CCc1ccccc1)N[C@@H](Cc1ccccc1)C(=O)CCl` [N-((S)-1-Benzyl-3-chloro-2-oxo-propyl)-3-phenyl-propionamide] has an IC50 of 150 µM.
